Test systems include K-562 leukemia; UACC-257 melanoma; CAKI-1 renal; SF-268 CNS; SK-MEL-2 melanoma; LOX IMVI melanoma; OVCAR-8 ovarian; CCRF-CEM leukemia; UACC-62 melanoma; HCT-15 colon.
Assay in all cases: NCI-60 cell line screen, 48 h

Several values for one entry are separate records, joined by “and”; a condition that tells them apart may be missing. Identical values can stand only once.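 Assay format: 96-well plates, 48-hour exposure. At the GI50, growth is halved. At the TGI there is no net growth.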

In the case of `CC(=O)NNc1ncc(C(=O)/C=C/c2ccccc2C)s1`, the TGI with K-562 leukemia, in the assay with UACC-257 melanoma, with CAKI-1 renal, with SF-268 CNS, with SK-MEL-2 melanoma and with LOX IMVI melanoma was more than 100 µM in each case. The TGI in the assay on OVCAR-8 ovarian, in the assay with CCRF-CEM leukemia and in the assay with UACC-62 melanoma was more than 100 µM throughout.

For the compound `OCC1CC2C=CCC(C2)C1` (stereo not given), the TGI in the assay with K-562 leukemia, in the assay with UACC-257 melanoma, in the assay on CAKI-1 renal, with SF-268 CNS, with SK-MEL-2 melanoma and with LOX IMVI melanoma was more than 100 µM each time. Besides, the TGI in the assay with OVCAR-8 ovarian, in the assay with CCRF-CEM leukemia and with UACC-62 melanoma was more than 100 µM throughout.

Take `O=C(Nc1ccc(Cl)cc1)c1cc(NCc2cc(O)ccc2O)ccc1O`: the GI50 was 2650 nM in the assay on K-562 leukemia; 15.7 µM in the assay on UACC-257 melanoma; 4090 nM in the assay on CAKI-1 renal; 3040 nM in the assay with SF-268 CNS; 12.2 µM in the assay with SK-MEL-2 melanoma; 4100 nM with LOX IMVI melanoma. For the same compound, the GI50 in the assay with OVCAR-8 ovarian is 4.35 µM; with CCRF-CEM leukemia it was 605 nM; in the assay on HCT-15 colon, 1810 nM; with UACC-62 melanoma, 2060 nM. Also, the TGI turned out to be 8.53 µM in the assay on K-562 leukemia; 30.3 µM in the assay with UACC-257 melanoma; 18.2 µM with CAKI-1 renal; 14 µM in the assay with SF-268 CNS; 27.3 µM in the assay on SK-MEL-2 melanoma; 23.1 µM with LOX IMVI melanoma. In addition, the TGI worked out at 20.1 µM with OVCAR-8 ovarian, 6.79 µM in the assay with CCRF-CEM leukemia, 6.01 µM with HCT-15 colon and 5.3 µM with UACC-62 melanoma.

Take `O=C1CC=C2C3CC4N(CCC45c4ccccc4N1C25)C/C3=C\CO` (stereo not given): the TGI with K-562 leukemia, with UACC-257 melanoma, in the assay on CAKI-1 renal, in the assay with SF-268 CNS, in the assay on SK-MEL-2 melanoma and with LOX IMVI melanoma was more than 100 µM each time. Also, the TGI with OVCAR-8 ovarian, in the assay on CCRF-CEM leukemia, in the assay with HCT-15 colon and in the assay with UACC-62 melanoma was more than 100 µM each time.

On to `O=[N+]([O-])c1cc(I)cc(/C=N/NS(=O)(=O)c2ccc(F)cc2)c1O`, for which the TGI was 52.7 µM in the assay on K-562 leukemia; 62.3 µM in the assay with UACC-257 melanoma; 63.1 µM in the assay with CAKI-1 renal; 61.5 µM with SF-268 CNS; 35.7 µM with SK-MEL-2 melanoma; 57.4 µM in the assay with LOX IMVI melanoma. Moreover, the TGI in the assay with OVCAR-8 ovarian was determined as 55.3 µM; in the assay with CCRF-CEM leukemia it was 53.9 µM; with HCT-15 colon, 64.7 µM; in the assay on UACC-62 melanoma, 41.6 µM.

`CCCCCCCC(=O)Nc1nc2[nH]c(CN3CCN(Cc4cccc(I)c4)CC3)c(CN3CCN(Cc4cccc(I)c4)CC3)c2c(=O)[nH]1`: the GI50 in the assay on K-562 leukemia is 455 nM; in the assay with UACC-257 melanoma, 1.14 µM; with CAKI-1 renal, 816 nM; with SF-268 CNS it was 829 nM; with SK-MEL-2 melanoma, 0.97 µM; in the assay on LOX IMVI melanoma, 762 nM. The GI50 is 1.04 µM with OVCAR-8 ovarian, 1250 nM in the assay with CCRF-CEM leukemia, 812 nM in the assay on HCT-15 colon and 901 nM in the assay with UACC-62 melanoma. The TGI with K-562 leukemia was 10.8 µM; in the assay on UACC-257 melanoma, 2.44 µM; in the assay on CAKI-1 renal it was 1.49 µM; in the assay on SF-268 CNS, 1.65 µM; in the assay on SK-MEL-2 melanoma, 2.05 µM; in the assay with LOX IMVI melanoma, 1.44 µM. Also, the TGI turned out to be 2.25 µM with OVCAR-8 ovarian, 3.22 µM in the assay on CCRF-CEM leukemia, 1.54 µM in the assay on HCT-15 colon and 1.66 µM with UACC-62 melanoma.

Turning to `Cc1cccc2c(=O)c3c(sc12)c(NCCCN)nc1ccccc13`, the GI50 in the assay on UACC-257 melanoma was 1.76 µM; with CAKI-1 renal, 1180 nM; with SF-268 CNS it was 1530 nM; with SK-MEL-2 melanoma it was 1.85 µM; with LOX IMVI melanoma, 1460 nM; with CCRF-CEM leukemia it was 1320 nM. The figures for the GI50 in the assay on HCT-15 colon and in the assay on UACC-62 melanoma were 1350 nM and 1600 nM, respectively. Besides, the TGI stood at 3.46 µM with UACC-257 melanoma; 2.47 µM in the assay with CAKI-1 renal; 3.17 µM with SF-268 CNS; 3.65 µM in the assay on SK-MEL-2 melanoma; 2.98 µM in the assay with LOX IMVI melanoma; 3.13 µM with CCRF-CEM leukemia. The TGI stood at 2.84 µM with HCT-15 colon and 3.06 µM in the assay on UACC-62 melanoma.

For `Cc1cc2[nH]c(=O)c3c4ncccc4cn3c2cc1C`, the GI50 in the assay with K-562 leukemia is 2540 nM; in the assay with CAKI-1 renal, 3210 nM; in the assay with SF-268 CNS, 3440 nM; with SK-MEL-2 melanoma, 5.69 µM; in the assay with LOX IMVI melanoma, 1720 nM; in the assay on OVCAR-8 ovarian, 2.89 µM. The results for the GI50 in the assay with CCRF-CEM leukemia and in the assay with UACC-62 melanoma were 2950 nM and 2060 nM, respectively. The TGI in the assay with K-562 leukemia was more than 100 µM; in the assay with CAKI-1 renal, more than 100 µM; with SF-268 CNS it was more than 100 µM; in the assay with SK-MEL-2 melanoma it was 40.3 µM; with LOX IMVI melanoma, 3.34 µM; in the assay on OVCAR-8 ovarian it was more than 100 µM. The TGI was more than 100 µM with CCRF-CEM leukemia and 4.33 µM in the assay with UACC-62 melanoma.

Take `CN1C(c2ccccc2)CC(=NO)CC1c1ccccc1` (stereo not given): the GI50 in the assay with K-562 leukemia is 32600 nM; with UACC-257 melanoma, 26.8 µM; with OVCAR-8 ovarian it was 54.1 µM; with CCRF-CEM leukemia it was 29200 nM; in the assay with HCT-15 colon it was 41100 nM. In addition, the TGI with K-562 leukemia was more than 100 µM; in the assay on UACC-257 melanoma it was > 100 µM and 79.9 µM; with CAKI-1 renal it was more than 100 µM; in the assay with SF-268 CNS, more than 100 µM; in the assay on SK-MEL-2 melanoma, more than 100 µM; with LOX IMVI melanoma, 40.7 µM. Further, the TGI in the assay on OVCAR-8 ovarian, with CCRF-CEM leukemia, in the assay with HCT-15 colon and with UACC-62 melanoma was more than 100 µM each time.

`CSc1ccc(Cc2cc(C(C)(C)C)cc(C(C)(C)C)c2O)cc1`: the TGI with K-562 leukemia amounted to 26.6 µM; in the assay on UACC-257 melanoma, 28.2 µM; in the assay on CAKI-1 renal, 30.5 µM; in the assay on SF-268 CNS it was 29.7 µM; in the assay on SK-MEL-2 melanoma, 16.3 µM; with LOX IMVI melanoma it was 22.4 µM. Further, the TGI with OVCAR-8 ovarian worked out at 30.7 µM; in the assay with CCRF-CEM leukemia it was 40 µM; with HCT-15 colon, 27.6 µM; in the assay on UACC-62 melanoma, 29.2 µM.
